Source: publication PMC7583046, “The Paralogue of the Intrinsically Disordered Nuclear Protein 1 Has a Nuclear Localization Sequence that Binds to Human Importin α3” (International Journal of Molecular Sciences, 2020)

Assays:
[1] = DOSY translational diffusion NMR; assay type: physicochemical; settings: 120 μM peptide, 283 K
Protocol: The peptide concentration in DOSY experiment was 120 μM, and 128 scans were acquired, where the gradient strength was varied linearly. Translational self-diffusion measurements were performed with the pulsed-gradient spin-echo sequence in the presence of 100% D2O. Experimental details have been described elsewhere. The gradient strength was varied in sixteen linear steps between 2 and 95% of the total power of the gradient coil. The gradient strength was calibrated using the value of the translational diffusion coefficient, D, for the residual proton water signal in a sample containing 100% D2O in a 5 mm tube [53]. The length of the gradient was 2.25 ms, the time between the two pulse gradients in the pulse sequence was 200 ms, and the recovery delay between the bipolar gradients was 100 μs. The methyl groups with signals between 1.0 and 0.80 ppm were used for peak integration (Section 2.2.1). Fitting of the exponential curves, obtained from experimental data as previously described, was carried out with KaleidaGraph version 3.5 (Synergy Software, Reading, PA, USA). A final concentration of 1% of dioxane, which was assumed to have a hydrodynamic radius Rh = 2.12 Å [53], was added to the peptide solution.

[2] = test system: ∆Impα3; settings: 50 mM phosphate pH 7.0, 298 K; NUPR1L 15 μM with importin 5 μM, or NLS-NUPR1L 10 μM with importin 4 μM
Protocol: (§1) Fluorescence spectra were collected on a Cary Varian spectrofluorometer (Agilent, Santa Clara, CA, USA), interfaced with a Peltier unit. All experiments were carried out at 298 K. Following the standard protocols used in our laboratories, the samples were prepared the day before and left overnight at 278 K; before experiments, samples were left for 1 h at 298 K. A 1 cm pathlength quartz cell (Hellma, Kruibeke, Belgium) was used. The concentration of NLS-NUPR1L was 10 μM and those of both importins were 4 μM. Samples containing the isolated peptide, the isolated importin species, and a mixture of both (at those indicated concentrations) were prepared. Experiments were acquired in 50 mM phosphate buffer (pH 7.0). For the experiments with intact NUPR1L, a concentration of 15 μM (in protomer units) was used and that of each importin was 5 μM.
(§2) Protein samples were excited either at 280 or 295 nm. The other experimental parameters and the buffers used have been described elsewhere. […]
(§3) Far-UV CD spectra were collected on a Jasco J810 spectropolarimeter (Jasco, Tokyo, Japan) with a thermostated cell holder, and interfaced with a Peltier unit at 298 K. The instrument was periodically calibrated with (+)-10-camphorsulphonic acid. […] The concentration of each polypeptide (importin species and either NLS-NUPR1L or intact NUPR1L) was the same as that used in the fluorescence experiments (Section 4.4). […]

[3] = test system: Impα3; settings: 50 mM phosphate pH 7.0, 298 K; NLS-NUPR1L 10 μM, importin 4 μM
Protocol: as §1, §2, §3

[4] = Aggregation / self-association tendency; assay type: physicochemical; settings: isolated peptide, refers to Section 2.2.1
[5] = biological target: T1, human importin α3 (Impα3) (Homo sapiens, UniProt O00629); test: Isothermal titration calorimetry, binding to Impα3; settings: Tris 50 mM pH 8, 298 K
T1 construct: Human importin α3 isoform (residues 1–521); His-tag (N); made in house; host or cells: E. coli BL21 (DE3)
T1 sequence (O00629 1-521): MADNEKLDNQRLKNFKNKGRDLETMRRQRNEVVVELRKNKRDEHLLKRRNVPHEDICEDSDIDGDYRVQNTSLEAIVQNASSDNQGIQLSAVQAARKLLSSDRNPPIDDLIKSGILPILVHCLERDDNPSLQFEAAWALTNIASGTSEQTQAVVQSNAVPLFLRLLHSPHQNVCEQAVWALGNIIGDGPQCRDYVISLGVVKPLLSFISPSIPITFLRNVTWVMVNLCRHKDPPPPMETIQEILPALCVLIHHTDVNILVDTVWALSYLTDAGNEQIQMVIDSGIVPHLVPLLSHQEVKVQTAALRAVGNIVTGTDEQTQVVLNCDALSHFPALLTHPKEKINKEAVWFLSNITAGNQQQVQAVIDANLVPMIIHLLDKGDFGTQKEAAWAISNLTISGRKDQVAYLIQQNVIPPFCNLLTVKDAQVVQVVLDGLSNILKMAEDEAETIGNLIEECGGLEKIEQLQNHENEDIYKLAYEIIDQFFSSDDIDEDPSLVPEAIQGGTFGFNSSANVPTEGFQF
Description: Figure 4 Binding of NLS-NUNPR1L to both importin species: (A) Titration curve monitoring the changes of Impα3 fluorescence at 340 nm in the presence of NLS-NUPR1L, after excitation at 280 nm. (B) Titration curve monitoring the changes of ∆Impα3 fluorescence at 340 nm in the presence of NLS-NUPR1L, after excitation at 280 nm. […] (C) Calorimetric binding isotherms (ligand normalized heat effect per injection as a function of the ligand/protein molar ratio) for the interaction of NLS-NUPR1L with Impα3 (left) and ∆Impα3 (right) are shown, with the thermogram (raw thermal power data as a function of time) at the top of each panel. Binding parameters were estimated by non-linear least squares regression data analysis of the interaction isotherms applying a single ligand binding site model implemented in Origin 7.0. (OriginLab, Northampton, MA, USA).
The experimental set-up and data processing of ITC experiments have been described previously. […] The temperature for all experiments was 298 K. The experiments were analyzed applying a model considering a single ligand binding site (1:1 stoichiometry for the NLS-NUPR1L/Impα3 (or ∆Impα3) interaction) implemented in Origin 7.0 (OriginLab, Northampton, MA, USA).

In the case of “Ac-RTRREQALRTNWPAPGGHERKVAQ-NH2 [NLS-NUPR1L]”, the “translational diffusion coefficient D” value ([1]; 100% D2O, pH 7.2, 50 mM Tris) was 1.74 ± 0.05 × 10^−6 cm^2 s^−1, the association state [1] was “monomeric” and the “hydrodynamic radius Rh” value ([1]; estimated by comparison with dioxane (1%)) was 12 ± 2 Å. For the same substance, the “spectral changes upon binding to ∆Impα3 (fluorescence and/or far-UV CD)” value [2] was “there were changes in the spectra upon addition of NLS-NUPR1L to each of the importin species”, the “spectral changes upon binding to Impα3 (fluorescence and CD)” value [3] was “there were changes in the spectra upon addition of NLS-NUPR1L to each of the importin species” and the tendency to aggregate [4] was “did not have any tendency to aggregate”. The “n, stoichiometry (ITC), Impα3” value [5] was 1.04 ± 0.05 and the “∆H (ITC), Impα3” value [5] was -3.1 ± 0.5 kcal/mol.
